Results published in PubChem BioAssay (NCI).
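Cells were grown in 96-well plates and exposed to each compound for 48 hours at five concentrations; endpoints were interpolated linearly between bracketing concentrations, or set to the highest concentration if not reached. TGI: concentration producing complete growth inhibition.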

What was measured:
Assay in all cases: NCI-60 cell line screen, 48 h
[1] = tested on: 786-0 renal
[2] = tested on: A498 renal
[3] = tested on: A549 NSCLC
[4] = tested on: ACHN renal
[5] = tested on: BT-549 breast
[6] = tested on: CAKI-1 renal
[7] = tested on: CCRF-CEM leukemia
[8] = tested on: COLO 205 colon
[9] = tested on: DLD-1 colon
[10] = tested on: DMS 114 small cell lung
[11] = tested on: DMS 273 small cell lung
[12] = tested on: DU-145 prostate
[13] = tested on: EKVX NSCLC
[14] = tested on: HCC-2998 colon
[15] = tested on: HCT-116 colon
[16] = tested on: HCT-15 colon
[17] = tested on: HL-60(TB) leukemia
[18] = tested on: HOP-18 NSCLC
[19] = tested on: HOP-62 NSCLC
[20] = tested on: HS 578T breast
[21] = tested on: HT29 colon
[22] = tested on: IGROV1 ovarian
[23] = tested on: K-562 leukemia
[24] = tested on: KM12 colon
[25] = tested on: KM20L2 colon
[26] = tested on: LOX IMVI melanoma
[27] = tested on: LXFL 529 NSCLC
[28] = tested on: M14 melanoma
[29] = tested on: M19-MEL melanoma
[30] = tested on: MALME-3M melanoma
[31] = tested on: MCF7 breast
[32] = tested on: MDA-MB-231 breast
[33] = tested on: MDA-MB-435
[34] = tested on: MDA-N
[35] = tested on: MOLT-4 leukemia
[36] = tested on: NCI-H226 lung
[37] = tested on: NCI-H23 lung
[38] = tested on: NCI-H460 lung
[39] = tested on: NCI-H522 lung
[40] = tested on: NCI/ADR-RES ovarian
[41] = tested on: OVCAR-3 ovarian
[42] = tested on: OVCAR-4 ovarian
[43] = tested on: OVCAR-5 ovarian
[44] = tested on: OVCAR-8 ovarian
[45] = tested on: PC-3 prostate
[46] = tested on: RPMI-8226 leukemia
[47] = tested on: RXF 393 renal
[48] = tested on: RXF-631 renal
[49] = tested on: SF-268 CNS
[50] = tested on: SF-295 CNS
[51] = tested on: SF-539 CNS
[52] = tested on: SK-MEL-2 melanoma
[53] = tested on: SK-MEL-28 melanoma
[54] = tested on: SK-MEL-5 melanoma
[55] = tested on: SK-OV-3 ovarian
[56] = tested on: SN12C renal
[57] = tested on: SNB-19 CNS
[58] = tested on: SNB-75 CNS
[59] = tested on: SNB-78 CNS
[60] = tested on: SR leukemia
[61] = tested on: SW-620 colon
[62] = tested on: T-47D breast
[63] = tested on: TK-10 renal
[64] = tested on: U251 CNS
[65] = tested on: UACC-257 melanoma
[66] = tested on: UACC-62 melanoma
[67] = tested on: UO-31 renal
[68] = tested on: XF 498 CNS
[69] = tested on: HOP-92 NSCLC

With `C/C1=C/C2OC(=O)C3(C)C2C(CC2(C)OC1=CC2=O)OC3(O)C(C)C` (configuration not stated) the TGI [1] was over 69.3 µM, the TGI [2] was over 100 µM and the TGI [3] was over 100 µM. For the same compound, the TGI [4] was over 100 µM, the TGI [5] was 24.9 µM and the TGI [6] was 62 µM. For the same compound, the TGI [7] was over 73.4 µM, the TGI [8] was over 73 µM and the TGI [9] was 87.8 µM. It also gave a TGI [10] of 29.6 µM, a TGI [11] of over 100 µM and a TGI [12] of over 100 µM. It also gave a TGI [13] of over 100 µM, a TGI [14] of 48.8 µM and a TGI [15] of over 100 µM. The TGI [16] was over 63.1 µM, the TGI [17] was 54.9 µM and the TGI [18] was over 100 µM. It also gave a TGI [19] of over 100 µM, a TGI [20] of over 100 µM and a TGI [21] of over 66.9 µM. The TGI [22] was over 84.5 µM, the TGI [23] was over 100 µM and the TGI [24] was over 60.3 µM. For the same compound, the TGI [25] was 43.2 µM, the TGI [26] was over 100 µM and the TGI [27] was 93.1 µM. The TGI [28] was over 100 µM, the TGI [29] was over 100 µM and the TGI [30] was 77.8 µM. It also gave a TGI [31] of over 100 µM, a TGI [32] of over 100 µM and a TGI [33] of over 100 µM. The TGI [34] was over 100 µM, the TGI [35] was over 100 µM and the TGI [36] was over 78.6 µM. It also gave a TGI [37] of over 54.1 µM, a TGI [38] of over 100 µM and a TGI [39] of 35.7 µM. For the same compound, the TGI [40] was over 100 µM, the TGI [41] was over 64.9 µM and the TGI [42] was over 55.3 µM. It also gave a TGI [43] of over 79.3 µM, a TGI [44] of over 62.4 µM and a TGI [45] of over 100 µM. The TGI [46] was over 86.1 µM, the TGI [47] was over 70.5 µM and the TGI [48] was over 100 µM. It also gave a TGI [49] of over 65.9 µM, a TGI [50] of over 78.7 µM and a TGI [51] of over 89.6 µM. For the same compound, the TGI [52] was over 84.6 µM, the TGI [53] was over 100 µM and the TGI [54] was 55 µM. It also gave a TGI [55] of over 100 µM, a TGI [56] of over 71.4 µM and a TGI [57] of over 74.4 µM. For the same compound, the TGI [58] was over 100 µM, the TGI [59] was over 100 µM and the TGI [60] was 65.7 µM. For the same compound, the TGI [61] was 67.4 µM, the TGI [62] was over 100 µM and the TGI [63] was over 100 µM. The TGI [64] was over 54 µM, the TGI [65] was over 75.1 µM and the TGI [66] was 56.4 µM. It also gave a TGI [67] of over 100 µM and a TGI [68] of 41 µM.
With `CCCCCCCCCC1CC(=O)Oc2cccc(O)c21` (configuration not stated) the TGI [1] was 30.6 µM, the TGI [2] was 42 µM and the TGI [3] was 83.4 µM. It also gave a TGI [4] of over 84.8 µM, a TGI [6] of 76.3 µM and a TGI [7] of 77.1 µM. For the same compound, the TGI [8] was 31.3 µM, the TGI [9] was over 71 µM and the TGI [10] was 45.7 µM. The TGI [11] was 19.3 µM, the TGI [13] was over 84.6 µM and the TGI [14] was over 20.2 µM. It also gave a TGI [15] of over 100 µM, a TGI [16] of 57.1 µM and a TGI [17] of 62 µM. It also gave a TGI [18] of 97.3 µM, a TGI [19] of 80.9 µM and a TGI [69] of over 70.3 µM. For the same compound, the TGI [21] was 53.8 µM, the TGI [22] was 55.2 µM and the TGI [23] was 66.3 µM. It also gave a TGI [24] of 39.1 µM, a TGI [25] of over 100 µM and a TGI [26] of 35.6 µM. The TGI [27] was 63.2 µM, the TGI [28] was 49.6 µM and the TGI [29] was over 96.7 µM. The TGI [30] was 38.1 µM, the TGI [35] was over 85.3 µM and the TGI [36] was 99.5 µM. The TGI [37] was 84.2 µM, the TGI [38] was 30.7 µM and the TGI [39] was 45.3 µM. It also gave a TGI [41] of 24.9 µM, a TGI [42] of over 78.3 µM and a TGI [43] of over 85.4 µM. It also gave a TGI [44] of over 81.2 µM, a TGI [46] of 83.4 µM and a TGI [47] of 46.6 µM. For the same compound, the TGI [48] was 20.2 µM, the TGI [49] was over 100 µM and the TGI [50] was over 83.3 µM. It also gave a TGI [51] of 71.7 µM, a TGI [52] of over 72.7 µM and a TGI [53] of over 70.9 µM. It also gave a TGI [54] of 35.2 µM, a TGI [55] of over 92.2 µM and a TGI [56] of 15.7 µM. It also gave a TGI [57] of over 88.2 µM, a TGI [58] of over 100 µM and a TGI [59] of over 100 µM. It also gave a TGI [60] of 64.2 µM, a TGI [61] of over 69.4 µM and a TGI [63] of over 100 µM. For the same compound, the TGI [64] was 25.4 µM, the TGI [65] was over 100 µM and the TGI [66] was 98.3 µM. For the same compound, the TGI [67] was 75.1 µM and the TGI [68] was 49.7 µM.
